# According to patent publication US20120034613A1, “Apparatus and Method for Testing Relationships Between Gene Expression and Physical Appearance of Skin” (NSE Products, Inc., priority 2010, published 2012):
# Tested on: EpidermFT™ Skin Model (EFT-400) full thickness skin cultures
# Experiment: Affymetrix GeneChip HG U133 Plus 2.0 microarray global gene expression, agent-exposed vs untreated skin cultures
# Format: cell-based, human
# Details: Salicin 0.5% vs Untreated Control, 24 hr treatment
smiles,measurement,value
"OCc1ccccc1O[C@@H]1O[C@H](CO)[C@@H](O)[C@H](O)[C@H]1O [Salicin, 2-(Hydroxymethyl)phenyl β-D-glucospyranoside]",Fold change ING1 (209808_x_at),2.572
same,Fold change IRAK2 (231779_at),2.734
same,Fold change IRAK3 (220034_at),2.411
same,Fold change ITPRIP (225582_at),2.421
same,Fold change JHDM1D (225142_at),2.825
same,Fold change KCNA3 (207237_at),2.308
same,Fold change KCNE4 (222379_at),2.686
same,Fold change KCNE4 (1552508_at),2.802
same,Fold change KCNJ8 (205303_at),2.493
same,Fold change KCNJ8 (205304_s_at),2.387
same,Fold change KLF15 (231015_at),2.338
same,Fold change KLHL29 (229310_at),2.719
same,Fold change LCP1 (208885_at),2.513
same,Fold change LOC285628 (232504_at),2.636
same,Fold change LOC440028 (1562606_a_at),2.7
same,Fold change LOC729222 /// PPFIBP1 (214375_at),2.426
same,Fold change LOC100128821 /// ZEB2 (235593_at),2.365
same,Fold change LOC100132244 (229438_at),2.299
same,Fold change LPAR1 (204036_at),2.391
same,Fold change LPAR1 (204037_at),2.425
same,Fold change LPAR1 (204038_s_at),2.732
same,Fold change LPPR4 (213496_at),2.406
same,Fold change LRCH2 (227688_at),2.318
same,Fold change LRRK2 (229584_at),2.314
same,Fold change MAGEA4 (214254_at),2.513
same,Fold change MAP3K4 (216199_s_at),2.654
same,Fold change MAP3K5 (203836_s_at),2.356
same,Fold change MAP9 (220145_at),2.4529
same,Fold change MASP1 (232224_at),2.402
same,Fold change MASP1 (235770_at),2.324
same,Fold change MESDC1 (223264_at),2.618
same,Fold change MGST1 (239001_at),2.428
same,Fold change MMD (203414_at),2.313
same,Fold change MTHFD2L (220346_at),2.597
same,Fold change MYO3B (1552578_a_at),2.338
same,Fold change NAMPT (217738_at),2.668
same,Fold change NEGR1 (1553194_at),2.339
same,Fold change NEXN (226103_at),2.323
same,Fold change NFKB2 (207535_s_at),2.67
same,Fold change NFKBIZ (223217_s_at),2.35
same,Fold change NOVA1 (205794_s_at),2.682
same,Fold change NR4A1 (202340_x_at),2.338
same,Fold change NRP2 (228699_at),2.306
same,Fold change OLAH (222945_x_at),2.586
same,Fold change PAPPA (201981_at),2.727
same,Fold change PAPPA (224940_s_at),2.664
same,Fold change PAPPA (224941_at),2.737
same,Fold change PAPPA (228128_x_at),2.482
same,Fold change PAPPA (1559400_s_at),2.415
same,Fold change PCDH7 (210941_at),2.333
same,Fold change PCSK1 (205825_at),2.59
same,Fold change PDE4D (211840_s_at),2.429
same,Fold change PEG10 (212092_at),2.813
same,Fold change PF4 (206390_x_at),2.652
same,Fold change PGM2L1 (229256_at),2.478
same,Fold change PHLDA1 (217996_at),2.515
same,Fold change PHTF1 (215285_s_at),2.498
same,Fold change PI15 (229947_at),2.619
same,Fold change PID1 (219093_at),2.447
same,Fold change PID1 (237867_s_at),2.743
same,Fold change PISD (202392_s_at),2.402
same,Fold change PITPNC1 (238649_at),2.621
same,Fold change PLAUR (211924_s_at),2.357
same,Fold change PLEKHA3 (223370_at),2.302
same,Fold change PTGER4 (204897_at),2.525
same,Fold change PTGES (207388_s_at),2.768
same,Fold change PTGES (210367_s_at),2.519
same,Fold change PTGS1 (205128_x_at),2.327
same,Fold change PTGS1 (215813_s_at),2.306
same,Fold change PTHLH (206300_s_at),2.505
same,Fold change PTHLH (211756_at),2.599
same,Fold change PTPRG (204944_at),2.299
same,Fold change QKI (228540_at),2.426
same,Fold change RAB3B (205924_at),2.634
same,Fold change RAB3B (227123_at),2.514
same,Fold change RAB23 (220955_x_at),2.644
same,Fold change RABGGTB (209180_at),2.305
same,Fold change RABGGTB (213704_at),2.423
same,Fold change RAI14 (202052_s_at),2.503
same,Fold change RASSF8 (235996_at),2.788
same,Fold change RGS3 (203823_at),2.462
same,Fold change RGS5 (209070_s_at),2.7
same,Fold change RGS12 (242079_at),2.358
same,Fold change RHOQ (212122_at),2.398
same,Fold change SEC24A (212902_at),2.298
same,Fold change SEMA3A (206805_at),2.505
same,Fold change SETDB2 (235339_at),2.377
same,Fold change SGK1 (201739_at),2.419
same,Fold change SH3RF3 (228461_at),2.389
same,Fold change SHOX (207570_at),2.312
same,Fold change SLC6A15 (232263_at),2.365
same,Fold change SLC11A2 (237106_at),2.533
same,Fold change SLC20A1 (230494_at),2.526
same,Fold change SLC43A3 (210692_s_at),2.457
same,Fold change SLFN11 (226743_at),2.451
same,Fold change SLIT2 (209897_s_at),2.499
same,Fold change SNHG12 (223774_at),2.339
same,Fold change SOCS2 (203373_at),2.46
same,Fold change SPON1 (209437_s_at),2.36
same,Fold change SPON1 (213993_at),2.499
same,Fold change SQSTM1 (213112_s_at),2.447
same,Fold change ST3GAL1 (208322_s_at),2.644
same,Fold change ST3GAL1 (225033_at),2.64
same,Fold change STK17B (205214_at),2.309
same,Fold change SULF1 (212344_at),2.665
same,Fold change TAF1A (206613_s_at),2.359
same,Fold change TAGLN (205547_s_at),2.426
same,Fold change TBC1D1 (212350_at),2.386
same,Fold change TBC1D1 (227945_at),2.566
same,Fold change TGM2 (201042_at),2.351
same,Fold change THBS1 (201108_s_at),2.756
same,Fold change THBS1 (239336_at),2.417
same,Fold change THRAP3 (242163_at),2.62
same,Fold change TMEM38B (222735_at),2.489
